Data taken from patent US11266664B2, “Use of homosalate and octyl salicylate to treat multiple sclerosis” (Wisconsin Alumni Research Foundation, priority 2016, dated 2022).
Entries after “also recorded” stand apart in the source; their conditions may differ.

Key:
rabbits = details: unpublished; cited from earlier work
ear edema = ear edema test in mice, reference 7; cited from earlier work
EAE mice = experiment: MOG35-55-induced EAE in mice, daily clinical score (0-5); type: in vivo; details: for Mean Severity / CDI / Day of onset: as E1, mean ± SD; for Mean Severity: clinical score 0-5 averaged over the entire experiment; for CDI: clinical scores summed per animal, divided by mice per group; for Effective topical dose in a mouse model: daily; for Dose dependence of EAE suppression: topical 10, 20 and 30 μl or 0.5, 1.0, 1.5 g/kg (FIG. 8A); for Suppression of EAE (mean clinical score) by sunscreen ingredients: topical daily day 0-30, amount equal to that in the sunscreen: homosalate 1.5 g/kg, octisalate 0.5 g/kg, 12% avobenzone, 16% oxybenzone in 25 μl DMSO; for Incidence: topical daily day 0-30, homosalate 30 μl (1.5 g/kg), octisalate 10 μl (0.5 g/kg), sunscreen spray 200 μl, N=11-12, * P<0.05 vs Control; for Suppression of EAE at 1.5 g/kg: topical, ca 1.5 g/kg
Experimental: Animals and Diet. Female C57BL/6 mice (8-9 weeks old) purchased from Jackson Laboratory were fed a standard lab diet chow 5008 (Purina Mills, Richmond, Ind.) and maintained in the Department of Biochemistry's vivarium. The mice were exposed to 12 h light-dark cycles. All procedures were approved by the Research Animal Resources Committee of the College of Agricultural & Life Sciences, University of Wisconsin-Madison. The mice were randomly divided into groups for different treatment (12 mice/group).
Mice were shaved on their back to receive sunscreen or NBUVB radiation. The following Sunscreen cream or spray was used in our study (See Appendix A): 1. Coppertone spray (SPF 50, MSD Consumer Care, Inc., Memphis, Tenn.); 2. Coppertone water babies (SPF 50, MSD Consumer Care, Inc., Memphis, Tenn.); 3. Hawaiian Tropic (SPF 50, Energizer Personal Care, LLC, Shelton, Conn.); 4. Kiss my face (SPF 50, Kiss My Face, LLC, Gardiner, N.Y.); 5. Blue Lizard Australian Sunscreen (SPF 30, Crown Laboratories, Johnson, Tenn.); 6. Banana Boat Kids (SPF 50, Energizer Personal Care, LLC, Shelton, Conn.); 7. CoTZ Face (SPF40, CoTZ Skincare, West Norriton, Pa.). The sunscreen was applied manually to cover the shaved skin daily depending on the experimental schedule. Four main active ingredients (avobenzone; oxibenzone; homosalate; octyl salicylate) were purchased from Spectrum Chemical MFG. Corp. (New Brunswick, N.J.). The total dose of each ingredient administrated topically on each mouse skin was equal to the amount of the ingredient in the sunscreen.
In this experiment, mice were immunized with myelin oligodendrocyte glycoprotein peptide (MOG)35-55. MOG35-55 kit (EK-2110) was purchased from Hooke lab (Lawrence, Mass.). Each mouse was immunized with subcutaneous injection of 20 μl MOG35-55/CFA emulsion and intraperitoneally injection with 200 ng of pertussis toxin (List Biological Laboratories) diluted in sterile PBS. The second booster pertussis toxin injection was given 48 hours later. Each mouse was scored daily for clinical signs of EAE using the following scale: 0, no clinical disease; 1, loss of tail tone; 2, unsteady gait; 3, hind limb paralysis; 4, forelimb paralysis; 5, death.
Onset was calculated by averaging the first day when clinical signs appeared and continued for at least 2 days. Mean severity was determined by averaging the clinical scores during the entire experiment. The CDI (clinical disease index) was calculated by summing the clinical scores in each animal and divided by the number of mice per group. Statistical analyses were performed using the two-tailed Fisher exact probability test for incidence, the Mann-Whitney nonparametric u test for clinical scores, and the unpaired Student t test for all other measurements. A value of P<0.05 was considered statistically significant.
Female C57BL/6 mice (8-10 weeks old) purchased from Jackson Laboratory (Bar Harbor, Me.) were fed a standard lab chow 5008 (Purina Mills, Richmond, Ind.). The mice were exposed to 12 h light-dark cycles. In one experiment the animals were kept in darkness at all times. All procedures were approved by the Institutional Animal Care and Use Committee of the College of Agricultural & Life Sciences, University of Wisconsin-Madison.
Mice were immunized with MOG35-55 kit (EK-2110, purchased from Hooke lab (Lawrence, Mass.)). Each mouse was immunized with a subcutaneous injection of 20 μl MOG35-55/CFA emulsion and an intraperitoneal injection with 200 ng of pertussis toxin (List Biological Laboratories) diluted in sterile PBS (14). A second booster pertussis toxin injection was given 48 hours later. Each mouse was scored daily for clinical signs of EAE using the following scale: 0, no clinical disease; 1, loss of tail tone; 2, unsteady gait; 3, hindlimb paralysis; 4, forelimb paralysis; 5, death (15).
Sunscreen creams or spray applied topically to the shaved back skin of the mice daily are shown below (Table 2): 1. […]

[1] = Body weight of EAE mice, weighed weekly; type: in vivo; details: for Body weight at three doses: topical 0.5, 1.0, 1.5 g/kg, all treatments except homosalate 0.5 g/kg (FIG. 8B); for Body weight of EAE mice given sunscreen ingredients: topical daily day 0-30, amount equal to that in the sunscreen
Experimental: Referring to FIGS. 2A and 2B, we analyzed different sunscreen ingredients. […] Mice were treated with ingredients (avobenzone, oxybenzone or combination) of sunscreen by topical administration daily during EAE (day 0-day 30). Sunscreen spray 200 μl was also used as a positive control. Each mouse was scored daily and weighed weekly during the experiment (30 days). Data are expressed as mean value, N=10-12/group.
Mice were treated with ingredients (homosalate, octyl salicylate or combination) of sunscreen by topical administration daily during EAE (day 0-day 30). Sunscreen spray 200 μl daily was used as a positive control. Mice were scored daily and weighed weekly. Data were expressed as mean value, N=10-12/group.

[2] = Adverse effects of topical application; type: in vivo, mice
MS = details: studied in 1961, reference 9; cited from earlier work

## CC1CC(OC(=O)c2ccccc2O)CC(C)(C)C1 (centres unmarked) [Homosalate, 3,3,5-trimethylcyclohexyl 2-hydrobenzoate]
rabbits
  Acute dermal toxicity LD50: > 5000 mg/kg
Ear edema
  Anti-inflammatory effect: demonstrated
EAE mice
  Mean Severity: 1.3 ± 0.0
  CDI: 1 ± 0
  Day of onset: 22 ± 0
  Effective topical dose in a mouse model: 1500 mg/kg
  Dose dependence of EAE suppression: dose-dependent suppression of EAE; also recorded: dose dependent suppression of EAE
  Suppression of EAE (mean clinical score) by sunscreen ingredients: significantly suppress EAE
  Incidence: 8% (1/12) *
  Suppression of EAE at 1.5 g/kg: equally active; also recorded: completely blocked EAE
EAE mice; homosalate 1.5 g/kg topically (FIGS. 8C and 8D)
  Effectiveness when applied less frequently than each day: effectiveness diminished
EAE mice; homosalate 30 μl or 1.5 g/kg topically (FIGS. 8C and 8D), p<0.05
  Mean EAE score, applied every day and every 2-day: significantly lower than control
EAE mice; listed as homosalate
  Suppression of EAE (mean clinical score) by sunscreen ingredients: dramatically suppress EAE development; also recorded: provide the protection; also recorded: dramatically suppressed EAE severity; also recorded: complete suppression of EAE; also recorded: almost completely prevented EAE development
[1]
  Body weight at three doses: increased the body weight; also recorded: significantly different from control
  Body weight of EAE mice given sunscreen ingredients: without affecting body weight
[2]
  Adverse effect: temporary mild skin irritation

## CC(=O)Oc1ccccc1C(=O)O [aspirin, acetylsalicylic acid]
MS
  Relationship between aspirin and MS, control vs treated group: without a significant difference between the control and treated group

## COc1ccc(C(=O)CC(=O)c2ccc(C(C)(C)C)cc2)cc1 [avobenzone, reference compound]
EAE mice
  Suppression of EAE (mean clinical score) by sunscreen ingredients: partially suppress EAE severity; also recorded: little to no significant suppression of EAE; also recorded: fail to suppress EAE; also recorded: slightly suppressed disease progression
EAE mice; listed as Avobenzone
  Suppression of EAE (mean clinical score) by sunscreen ingredients: partially suppress EAE severity
[1]
  Body weight of EAE mice given sunscreen ingredients: no significant change in body weight

## CCCCC(CC)COC(=O)c1ccccc1O (centres unmarked) [octyl salicylate, 2-ethylhexyl salicylate]
EAE mice
  Mean Severity: 2.0 ± 0.8
  CDI: 20 ± 1
  Day of onset: 18 ± 3
  Effective topical dose in a mouse model: 500 mg/kg
  Suppression of EAE (mean clinical score) by sunscreen ingredients: dramatically suppress EAE development; also recorded: provide the protection; also recorded: almost completely prevented EAE development
  Incidence: 75% (9/12)
  Suppression of EAE at 1.5 g/kg: equally active
EAE mice; listed as octisalate
  Dose dependence of EAE suppression: dose-dependent suppression of EAE; also recorded: dose dependent suppression of EAE
  Suppression of EAE (mean clinical score) by sunscreen ingredients: complete suppression of EAE; also recorded: significantly suppress EAE
EAE mice; listed as Octisalate
  Suppression of EAE (mean clinical score) by sunscreen ingredients: moderate suppression but did not reach statistical significance
[1]; listed as octisalate
  Body weight at three doses: increased the body weight; also recorded: significantly different from control
[1]
  Body weight of EAE mice given sunscreen ingredients: without affecting body weight
[2]
  Adverse effect: temporary mild skin irritation

## COc1ccc(C(=O)c2ccccc2)c(O)c1 [oxybenzone, reference compound]
EAE mice
  Suppression of EAE (mean clinical score) by sunscreen ingredients: partially suppress EAE severity; also recorded: little to no significant suppression of EAE; also recorded: fail to suppress EAE; also recorded: slightly suppressed disease progression
[1]
  Body weight of EAE mice given sunscreen ingredients: no significant change in body weight
